Assays:
Type in all cases: in vivo
Digitaria ciliaris [1] = assay: Test Example 4: herbicidal effect test by stem and leaf treatment in upland field; conditions: Digitaria ciliaris; 120 g per 10 ares; sprayed seven days after sowing, upland soil; 14 days after application; read-out: weed inhibition rate
Echinochloa crus-galli [2] = assay: as above; conditions: Echinochloa crus-galli; 120 g per 10 ares; sprayed seven days after sowing, upland soil; 14 days after application; read-out: weed inhibition rate
Digitaria ciliaris [3] = assay: Test Example 8: herbicidal effect test by stem and leaf treatment in upland field (low dose); conditions: Digitaria ciliaris; 7.5 g per 10 ares; sprayed seven days after sowing, upland soil; 14 days after application; read-out: weed inhibition rate
Echinochloa crus-galli [4] = assay: as above; conditions: Echinochloa crus-galli; 7.5 g per 10 ares; sprayed seven days after sowing, upland soil; 14 days after application; read-out: weed inhibition rate
[5] = test system: Echinochloa crus-galli var. formosensis; assay: Test Example 6: herbicidal effect test by application during growth period of paddy rice (low dose); conditions: Echinochloa crus-galli; 7.5 g per 10 ares; applied seven days after sowing, flooded pots; 14 days after application; read-out: weed inhibition rate
How it was run: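 Paddy soil in flooded Wagner pots (about 3 cm water), weeds sown at 0–1 cm, 30 seeds each, grown in a glass greenhouse. Seven days after sowing, water-diluted emulsifiable concentrate was dropped into the water at 7.5 g active ingredient per 10 ares. Weed inhibition rate (%) was scored 14 days after application, in duplicate.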

[6] = test system: Echinochloa crus-galli var. formosensis; assay: Test Example 1: herbicidal effect test by soil application in paddy rice; conditions: Echinochloa crus-galli, soil, 336 h; 120 g active ingredient per 10 ares; applied immediately after sowing, flooded pots; 14 days after application; read-out: weed inhibition rate
How it was run: (§1)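 Soil-applied test under flooded paddy conditions (~3 cm water) in a glass greenhouse. Seeds were sown shallow (0–1 cm, 30 per species), then compound was dripped in as diluted emulsifiable concentrate at 120 g a.i./10 a.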

Scirpus juncoides [7] = assay: as above; conditions: Schoenoplectiella juncoides, soil, 336 h; 120 g active ingredient per 10 ares; applied immediately after sowing, flooded pots; 14 days after application; read-out: weed inhibition rate
How it was run: as §1

[8] = test system: Echinochloa crus-galli var. formosensis; assay: Test Example 2: herbicidal effect test by application during growth period of paddy rice; conditions: Echinochloa crus-galli; 120 g per 10 ares; applied seven days after sowing, flooded pots; 14 days after application; read-out: weed inhibition rate
How it was run: (§2)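 Greenhouse pots of flooded paddy soil, seeded shallowly with 30 seeds per weed, are treated on day 7 by dropper with diluted emulsifiable concentrate equal to 120 g a.i./10 a. Duplicate pots are scored for inhibition rate 14 days post-application.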

Scirpus juncoides [9] = assay: as above; conditions: Schoenoplectiella juncoides; 120 g per 10 ares; applied seven days after sowing, flooded pots; 14 days after application; read-out: weed inhibition rate
How it was run: as §2

Digitaria ciliaris [10] = assay: Test Example 7: herbicidal effect test by soil application in upland field (low dose); conditions: Digitaria ciliaris, 7.5 g per 10 ares, sprayed one day after sowing, 14 days after application, read-out: weed inhibition rate
How it was run: (§3)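 Duplicate pots of alluvial loam, seeds incorporated in the surface 1 cm. Soil surface sprayed 1 d after sowing (EC in water, 100 L/10 a; 7.5 g a.i./10 a). Endpoint: % inhibition, day 14.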

Echinochloa crus-galli [11] = assay: as above; conditions: Echinochloa crus-galli, 7.5 g per 10 ares, sprayed one day after sowing, 14 days after application, read-out: weed inhibition rate
How it was run: as §3

Digitaria ciliaris [12] = assay: Test Example 3: herbicidal effect test by soil application in upland field; conditions: Digitaria ciliaris, 120 g per 10 ares, sprayed one day after sowing, 14 days after application, read-out: weed inhibition rate
How it was run: (§4)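 Pre-emergence test: seeds mixed into top 1 cm of alluvial loam upland soil in pots; emulsifiable concentrate diluted in water sprayed on soil one day after sowing at 100 L/10 a, 120 g a.i./10 a. Weed inhibition rate (%) scored at 14 days, in duplicate.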

Echinochloa crus-galli [13] = assay: as above; conditions: Echinochloa crus-galli, 120 g per 10 ares, sprayed one day after sowing, 14 days after application, read-out: weed inhibition rate
How it was run: as §4

[14] = test system: Echinochloa crus-galli var. formosensis; assay: Test Example 5: herbicidal effect test by soil application in paddy rice (low dose); conditions: Echinochloa crus-galli, soil, 336 h; 7.5 g per 10 ares; applied immediately after sowing, flooded pots; 14 days after application; read-out: weed inhibition rate
How it was run: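 7.5 g a.i./10 a applied by dropper into ~3 cm floodwater immediately post-sowing (seeds 0–1 cm, 30 per species; puddled fertilized paddy soil, glasshouse). Duplicates; day-14 inhibition %.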

CC(C)C12CC(OCc3c(F)cccc3Br)C(C)(CC1I)O2 (stereo not shown) [1-1612, 5-[(2-bromo-6-fluoro-phenyl)methoxy]-2-iodo-1-isopropyl-4-methyl-7-oxabicyclo[2.2.1]heptane]
≥ 80%: inhibition at 1200 g/ha (Digitaria ciliaris [1]) | inhibition at 1200 g/ha (Echinochloa crus-galli [2]) | inhibition at 75 g/ha (Digitaria ciliaris [3]) | inhibition at 75 g/ha (Echinochloa crus-galli [4]) | inhibition at 75 g/ha [5] | pest or weed control at 1200 g/ha [6] | pest or weed control at 1200 g/ha (Scirpus juncoides [7]) | inhibition at 1200 g/ha [8] | inhibition at 1200 g/ha (Scirpus juncoides [9]) | inhibition at 75 g/ha (Digitaria ciliaris [10]) | inhibition at 75 g/ha (Echinochloa crus-galli [11]) | inhibition at 1200 g/ha (Digitaria ciliaris [12]) | inhibition at 1200 g/ha (Echinochloa crus-galli [13]) | inhibition at 75 g/ha [14]

CC(C)[C@]12C[C@@H](OCc3c(F)cccc3Br)[C@](C)(C[C@@H]1Cl)O2 [1-1613, (1R,2S,4S,5R)-5-[(2-bromo-6-fluoro-phenyl)methoxy]-2-chloro-1-isopropyl-4-methyl-7-oxabicyclo[2.2.1]heptane]
≥ 80%: inhibition at 1200 g/ha (Digitaria ciliaris [1]) | inhibition at 1200 g/ha (Echinochloa crus-galli [2]) | inhibition at 75 g/ha (Digitaria ciliaris [3]) | inhibition at 75 g/ha (Echinochloa crus-galli [4]) | inhibition at 75 g/ha [5] | pest or weed control at 1200 g/ha [6] | pest or weed control at 1200 g/ha (Scirpus juncoides [7]) | inhibition at 1200 g/ha [8] | inhibition at 1200 g/ha (Scirpus juncoides [9]) | inhibition at 75 g/ha (Digitaria ciliaris [10]) | inhibition at 75 g/ha (Echinochloa crus-galli [11]) | inhibition at 1200 g/ha (Digitaria ciliaris [12]) | inhibition at 1200 g/ha (Echinochloa crus-galli [13]) | inhibition at 75 g/ha [14]

CC(C)[C@]12C[C@@H](OCc3c(F)cccc3Br)[C@](C)(C[C@@H]1I)O2 [1-1614, (1R,2S,4S,5R)-5-[(2-bromo-6-fluoro-phenyl)methoxy]-2-iodo-1-isopropyl-4-methyl-7-oxabicyclo[2.2.1]heptane]
≥ 80%: inhibition at 1200 g/ha (Digitaria ciliaris [1]) | inhibition at 1200 g/ha (Echinochloa crus-galli [2]) | inhibition at 75 g/ha (Digitaria ciliaris [3]) | inhibition at 75 g/ha (Echinochloa crus-galli [4]) | inhibition at 75 g/ha [5] | pest or weed control at 1200 g/ha [6] | pest or weed control at 1200 g/ha (Scirpus juncoides [7]) | inhibition at 1200 g/ha [8] | inhibition at 1200 g/ha (Scirpus juncoides [9]) | inhibition at 75 g/ha (Digitaria ciliaris [10]) | inhibition at 75 g/ha (Echinochloa crus-galli [11]) | inhibition at 1200 g/ha (Digitaria ciliaris [12]) | inhibition at 1200 g/ha (Echinochloa crus-galli [13]) | inhibition at 75 g/ha [14]

CCNC(=O)O[C@H]1C[C@]2(C)O[C@@]1(C(C)C)C[C@H]2OCc1ccccc1F [1-1615, [(1R,2S,4S,5R)-5-[(2-fluorophenyl)methoxy]-1-isopropyl-4-methyl-7-oxabicyclo[2.2.1]heptan-2-yl] N-ethylcarbamate]
≥ 80%: inhibition at 1200 g/ha (Digitaria ciliaris [1]) | inhibition at 1200 g/ha (Echinochloa crus-galli [2]) | inhibition at 75 g/ha (Digitaria ciliaris [3]) | inhibition at 75 g/ha (Echinochloa crus-galli [4]) | inhibition at 75 g/ha [5] | pest or weed control at 1200 g/ha [6] | pest or weed control at 1200 g/ha (Scirpus juncoides [7]) | inhibition at 1200 g/ha [8] | inhibition at 1200 g/ha (Scirpus juncoides [9]) | inhibition at 75 g/ha (Digitaria ciliaris [10]) | inhibition at 75 g/ha (Echinochloa crus-galli [11]) | inhibition at 1200 g/ha (Digitaria ciliaris [12]) | inhibition at 1200 g/ha (Echinochloa crus-galli [13]) | inhibition at 75 g/ha [14]

CC(C)=CCO[C@@H]1C[C@@]2(C(C)C)C=C[C@]1(C)O2 [3-693, (1R,4S,5R)-1-isopropyl-4-methyl-5-(3-methylbut-2-enoxy)-7-oxabicyclo[2.2.1]hept-2-ene]
≥ 80%: inhibition at 1200 g/ha (Digitaria ciliaris [1]) | inhibition at 1200 g/ha (Echinochloa crus-galli [2]) | inhibition at 75 g/ha (Digitaria ciliaris [3]) | inhibition at 75 g/ha (Echinochloa crus-galli [4]) | inhibition at 75 g/ha [5] | pest or weed control at 1200 g/ha [6] | pest or weed control at 1200 g/ha (Scirpus juncoides [7]) | inhibition at 1200 g/ha [8] | inhibition at 1200 g/ha (Scirpus juncoides [9]) | inhibition at 75 g/ha (Digitaria ciliaris [10]) | inhibition at 75 g/ha (Echinochloa crus-galli [11]) | inhibition at 1200 g/ha (Digitaria ciliaris [12]) | inhibition at 1200 g/ha (Echinochloa crus-galli [13]) | inhibition at 75 g/ha [14]

CC(C)[C@]12C=C[C@](C)(O1)[C@H](OCC1CCCCC1)C2 [3-697, (1R,4S,5R)-5-(cyclohexylmethoxy)-1-isopropyl-4-methyl-7-oxabicyclo[2.2.1]hept-2-ene]
≥ 80%: inhibition at 1200 g/ha (Digitaria ciliaris [1]) | inhibition at 1200 g/ha (Echinochloa crus-galli [2]) | inhibition at 75 g/ha (Digitaria ciliaris [3]) | inhibition at 75 g/ha (Echinochloa crus-galli [4]) | inhibition at 75 g/ha [5] | pest or weed control at 1200 g/ha [6] | pest or weed control at 1200 g/ha (Scirpus juncoides [7]) | inhibition at 1200 g/ha [8] | inhibition at 1200 g/ha (Scirpus juncoides [9]) | inhibition at 75 g/ha (Digitaria ciliaris [10]) | inhibition at 75 g/ha (Echinochloa crus-galli [11]) | inhibition at 1200 g/ha (Digitaria ciliaris [12]) | inhibition at 1200 g/ha (Echinochloa crus-galli [13]) | inhibition at 75 g/ha [14]

CC(C)C12C=CC(C)(O1)C(OCc1ccccc1)C2 (stereo not shown) [3-752, 4-methyl-5-phenylmethoxy-1-isopropyl-7-oxabicyclo[2.2.1]hept-2-ene]
≥ 80%: inhibition at 1200 g/ha (Digitaria ciliaris [1]) | inhibition at 1200 g/ha (Echinochloa crus-galli [2]) | inhibition at 75 g/ha (Digitaria ciliaris [3]) | inhibition at 75 g/ha (Echinochloa crus-galli [4]) | inhibition at 75 g/ha [5] | pest or weed control at 1200 g/ha [6] | pest or weed control at 1200 g/ha (Scirpus juncoides [7]) | inhibition at 1200 g/ha [8] | inhibition at 1200 g/ha (Scirpus juncoides [9]) | inhibition at 75 g/ha (Digitaria ciliaris [10]) | inhibition at 75 g/ha (Echinochloa crus-galli [11]) | inhibition at 1200 g/ha (Digitaria ciliaris [12]) | inhibition at 1200 g/ha (Echinochloa crus-galli [13]) | inhibition at 75 g/ha [14]

CC(C)C12C=CC(C)(O1)C(OCc1ccccc1F)C2 (stereo not shown) [3-754, 5-[(2-fluorophenyl)methoxy]-4-methyl-1-isopropyl-7-oxabicyclo[2.2.1]hept-2-ene]
≥ 80%: inhibition at 1200 g/ha (Digitaria ciliaris [1]) | inhibition at 1200 g/ha (Echinochloa crus-galli [2]) | inhibition at 75 g/ha (Digitaria ciliaris [3]) | inhibition at 75 g/ha (Echinochloa crus-galli [4]) | inhibition at 75 g/ha [5] | pest or weed control at 1200 g/ha [6] | pest or weed control at 1200 g/ha (Scirpus juncoides [7]) | inhibition at 1200 g/ha [8] | inhibition at 1200 g/ha (Scirpus juncoides [9]) | inhibition at 75 g/ha (Digitaria ciliaris [10]) | inhibition at 75 g/ha (Echinochloa crus-galli [11]) | inhibition at 1200 g/ha (Digitaria ciliaris [12]) | inhibition at 1200 g/ha (Echinochloa crus-galli [13]) | inhibition at 75 g/ha [14]
